From PubChem BioAssay (NCI)
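Results reflect a 48-hour exposure of cells in 96-well plates to compound at five concentrations. At the GI50, growth is halved. The concentration for full growth arrest is given as TGI.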

Assays:
Experiment in all cases: NCI-60 cell line screen, 48 h
[1] = test system: OVCAR-3 ovarian
[2] = test system: K-562 leukemia
[3] = test system: BT-549 breast
[4] = test system: RXF 393 renal
[5] = test system: SK-MEL-2 melanoma
[6] = test system: LOX IMVI melanoma
[7] = test system: PC-3 prostate
[8] = test system: A549 NSCLC
[9] = test system: MALME-3M melanoma
[10] = test system: T-47D breast
[11] = test system: NCI-H460 lung
[12] = test system: SF-295 CNS
[13] = test system: OVCAR-4 ovarian
[14] = test system: HOP-92 NSCLC
[15] = test system: CAKI-1 renal
[16] = test system: HCC-2998 colon
[17] = test system: KM12 colon
[18] = test system: MDA-MB-435
[19] = test system: SK-MEL-28 melanoma
[20] = test system: SR leukemia
[21] = test system: HOP-62 NSCLC
[22] = test system: NCI-H522 lung
[23] = test system: HT29 colon
[24] = test system: TK-10 renal
[25] = test system: HCT-116 colon
[26] = test system: CCRF-CEM leukemia
[27] = test system: UO-31 renal
[28] = test system: ACHN renal
[29] = test system: COLO 205 colon
[30] = test system: MOLT-4 leukemia
[31] = test system: U251 CNS
[32] = test system: SF-539 CNS
[33] = test system: UACC-257 melanoma
[34] = test system: MDA-MB-231 breast
[35] = test system: OVCAR-8 ovarian
[36] = test system: SF-268 CNS
[37] = test system: 786-0 renal
[38] = test system: SK-OV-3 ovarian
[39] = test system: SN12C renal
[40] = test system: NCI-H226 lung
[41] = test system: M14 melanoma
[42] = test system: DU-145 prostate
[43] = test system: MCF7 breast
[44] = test system: EKVX NSCLC
[45] = test system: NCI/ADR-RES ovarian
[46] = test system: SW-620 colon
[47] = test system: SK-MEL-5 melanoma
[48] = test system: OVCAR-5 ovarian
[49] = test system: UACC-62 melanoma
[50] = test system: NCI-H23 lung
[51] = test system: HCT-15 colon
[52] = test system: IGROV1 ovarian
[53] = test system: SNB-19 CNS
[54] = test system: HL-60(TB) leukemia
[55] = test system: A498 renal
[56] = test system: RPMI-8226 leukemia
[57] = test system: HS 578T breast

NC(N)=N/N=C/c1ccc(-c2ccc(-c3cc(Cl)cc(Cl)c3)s2)cc1
GI50 [1]: 1710 nM | TGI [1]: 3270 nM | GI50 [2]: 431 nM | TGI [2]: 1790 nM | GI50 [3]: 2370 nM | TGI [3]: 7020 nM | GI50 [4]: 1670 nM | TGI [4]: 3370 nM | GI50 [5]: 2080 nM | TGI [5]: 4770 nM | GI50 [6]: 1650 nM | TGI [6]: 3420 nM | GI50 [7]: 1580 nM | TGI [7]: 3160 nM | GI50 [8]: 2150 nM | TGI [8]: 4990 nM | GI50 [9]: 1720 nM | TGI [9]: 3420 nM | GI50 [10]: 2020 nM | TGI [10]: 4540 nM | GI50 [11]: 1700 nM | TGI [11]: 3460 nM | GI50 [12]: 1840 nM | TGI [12]: 3470 nM | GI50 [13]: 1900 nM | TGI [13]: 3770 nM | GI50 [14]: 1410 nM | TGI [14]: 3130 nM | GI50 [15]: 1580 nM | TGI [15]: 3310 nM | GI50 [16]: 1940 nM | TGI [16]: 3830 nM | GI50 [17]: 1870 nM | TGI [17]: 3560 nM | GI50 [18]: 1650 nM | TGI [18]: 3280 nM | GI50 [19]: 1800 nM | TGI [19]: 3510 nM | GI50 [20]: 326 nM | TGI [20]: 1730 nM | GI50 [21]: 1790 nM | TGI [21]: 4050 nM | GI50 [22]: 1850 nM | TGI [22]: 4450 nM | GI50 [23]: 1910 nM | TGI [23]: 4810 nM | GI50 [24]: 1710 nM | TGI [24]: 3540 nM | GI50 [25]: 1310 nM | TGI [25]: 2990 nM | GI50 [26]: 1650 nM | TGI [26]: 4620 nM | GI50 [27]: 1500 nM | TGI [27]: 2970 nM | GI50 [28]: 1750 nM | TGI [28]: 3290 nM | GI50 [29]: 1490 nM | TGI [29]: 3880 nM | GI50 [30]: 1720 nM | TGI [30]: 4300 nM | GI50 [31]: 1890 nM | TGI [31]: 4040 nM | GI50 [32]: 1650 nM | TGI [32]: 3100 nM | GI50 [33]: 1940 nM | TGI [33]: 4220 nM | GI50 [34]: 1770 nM | TGI [34]: 3360 nM | GI50 [35]: 2480 nM | TGI [35]: 6340 nM | GI50 [36]: 1850 nM | TGI [36]: 4220 nM | GI50 [37]: 1740 nM | TGI [37]: 3660 nM | GI50 [38]: 2000 nM | TGI [38]: 4080 nM | GI50 [39]: 1760 nM | TGI [39]: 3480 nM | GI50 [40]: 2330 nM | TGI [40]: 5990 nM | GI50 [41]: 1750 nM | TGI [41]: 3530 nM | GI50 [42]: 1740 nM | TGI [42]: 3180 nM | GI50 [43]: 1100 nM | TGI [43]: 3070 nM | GI50 [44]: 1840 nM | TGI [44]: 4030 nM | GI50 [45]: 2000 nM | TGI [45]: 4330 nM | GI50 [46]: 1660 nM | TGI [46]: 3340 nM | GI50 [47]: 2790 nM | TGI [47]: 7850 nM | GI50 [48]: 1590 nM | TGI [48]: 3020 nM | GI50 [49]: 1850 nM | TGI [49]: 3720 nM | GI50 [50]: 1900 nM | TGI [50]: 3880 nM | GI50 [51]: 1250 nM | TGI [51]: 2760 nM | GI50 [52]: 1680 nM | TGI [52]: 3360 nM | GI50 [53]: 1850 nM | TGI [53]: 3730 nM | GI50 [54]: 1680 nM | TGI [54]: 3590 nM | GI50 [55]: 1250 nM | TGI [55]: 2550 nM | GI50 [56]: 1780 nM | TGI [56]: 4490 nM | GI50 [57]: 1780 nM | TGI [57]: 4050 nM
